Values of other authors as cited in patent US12176074B2, “Compound function prediction method based on neural network and connectivity map algorithm” (BEIJING GIGACEUTICALS TECH. CO. LTD, priority 2021, dated 2024).

Test system: novel coronavirus (SARS-CoV-2)
Settings: specific data in Chinese patent application 202010309486.2; read-out: EC50, effect for fighting against the novel coronavirus

Structure (SMILES): O=C1C[C@@H](c2ccc(O[C@@H]3O[C@H](CO)[C@@H](O)[C@H](O)[C@H]3O)cc2)Oc2cc(O)ccc21 [liquiritin]
- EC50: 2.39 µM
